Test results from patent US8106048B2, “Heterocyclic NF-κB inhibitors” (4SC AG, priority 2004, dated 2012).

tested on: A549-NF-κB-SEAP reporter cells; assay: Inhibition of NF-κB-induced inflammation: […] NINA Instant Assay, TNF-α stimulated SEAP reporter; type: cell-based; conditions: % inhibition classes
Description: For the determination of anti-inflammatory activity of the compounds the […]® NINA Instant Assay from Cell Culture Service GmBH was used. This assay is based on […] recombinant A549-NF-κB-SEAP reporter cells preceded in 96-well flat bottom plates. As the transfected reportergen for SEAP (secreted embryonic alkaline phosphatase) is under transcriptional control of a NF-κB-responsive element, the expression of this reporter is activated upon stimulation with TNF-α. SEAP secretion into the culture supernatant can be detected by the chemiluminescent substrate CSPD®. Test compounds that inhibit the NF-κB activation show reduced SEAP activity and reduced luminescent readout.
Following 18 h of reactivation at 37° C., 5% CO2 and 90% relative humidity, the cells were incubated with 0.01 up to 100 μM of test compound for 4.5 h before stimulation with 2 ng/ml TNF-α. After stimulation with TNF-α for 22 h endogenous phosphatases were inactivated and CSPD® substrate was supplied for 40 min. SEAP activity then was quantified by measuring luminescence as relative light units (RLU) using a Tecan Ultra reader. Each data point was recorded in quadruplicates and EC50 values were calculated via fitting function and the Microsoft Excel Solver.

| Compound | Biological activity (inhibition in the NF-κB inflammation assay) |
| --- | --- |
| COC(=O)C1Cc2ccc(O)cc2CN1C(=O)c1csc(C2CCN(C(=O)Cc3ccc(F)cc3)CC2)n1 (stereo not drawn) [compound 179] | + (“+” stands for 50-80% inhibition) |
| O=C(Nc1ccc(F)cc1)N1CCC(c2nc(C(=O)N3CCN(c4cccc(C(F)(F)F)c4)CC3)cs2)CC1 [compound 143] | + (“+” stands for 50-80% inhibition) |
| N=C(NC(=O)c1cnc(NC(=O)c2ccccc2OC(F)(F)F)s1)Nc1nc2ccccc2[nH]1 [compound 50] | +++ (“+++” stands for 90-100% inhibition) |
| O=C(c1csc(C2CCN(c3ccccc3)CC2)n1)N1CCN(c2cccc(C(F)(F)F)c2)CC1 [compound 119] | + (“+” stands for 50-80% inhibition) |
| O=C(C=Cc1ccccc1)N1CCC(c2nc(C(=O)N3CCN(c4cccc(C(F)(F)F)c4)CC3)cs2)CC1 [compound 214] | ++ (“++” means 80-90%) |
| O=C(Cc1ccc(F)cc1)N1CCC(c2nc(C(=O)N3CCC(n4nnc5ccccc54)CC3)cs2)CC1 [compound 182] | + (“+” stands for 50-80% inhibition) |
| COc1ccccc1N1CCN(C(=O)c2csc(NC(=O)c3ccccc3OC(F)(F)F)n2)CC1 [compound 44] | ++ (“++” means 80-90%) |
| O=C(CCC1CCCC1)N1CCN(c2nc(C(=O)N3CCN(c4cccc(C(F)(F)F)c4)CC3)cs2)CC1 [compound 37] | +++ (“+++” stands for 90-100% inhibition) |
| O=C(c1csc(C2CCN(C(=O)c3ccccc3OC(F)(F)F)CC2)n1)N1CCN(c2cccc(C(F)(F)F)c2)CC1 [compound 223] | +++ (“+++” stands for 90-100% inhibition) |
| O=C(c1csc(C2CCN(C(=O)c3ccccc3OC(F)(F)F)CC2)n1)N(Cc1ccc(Cl)cc1)Cc1ccc(Cl)cc1 [compound 110] | + (“+” stands for 50-80% inhibition) |
| O=C(c1csc(C2CCN(C(=O)c3cc4ccccc4s3)CC2)n1)N1CCN(c2cccc(C(F)(F)F)c2)CC1 [compound 213] | ++ (“++” means 80-90%) |
| O=C(Nc1cc(F)cc2c1OCCO2)N1CCC(c2nc(C(=O)N3CCN(c4cccc(C(F)(F)F)c4)CC3)cs2)CC1 [compound 74] | ++ (“++” means 80-90%) |
| CSc1nccc(N2CCN(C(=O)c3csc(C4CCN(C(=O)c5ccccc5OC(F)(F)F)CC4)n3)CC2)n1 [compound 124] | + (“+” stands for 50-80% inhibition) |
| O=C(c1csc(C2CCN(S(=O)(=O)c3c(F)c(F)c(F)c(F)c3F)CC2)n1)N1CCN(c2cccc(C(F)(F)F)c2)CC1 [compound 193] | + (“+” stands for 50-80% inhibition) |
| CC(c1cc2ccccc2[nH]1)N(C)C(=O)c1csc(C2CCN(C(=O)c3ccccc3OC(F)(F)F)CC2)n1 (stereo not drawn) [compound 145] | + (“+” stands for 50-80% inhibition) |
| CN(C)c1nc(NC(=O)c2csc(C3CCN(C(=O)c4ccccc4OC(F)(F)F)CC3)n2)cc(=O)[nH]1 [compound 85] | + (“+” stands for 50-80% inhibition) |
| O=C(Nc1nnc(Cc2ccccc2)[nH]1)c1csc(C2CCN(C(=O)c3ccccc3OC(F)(F)F)CC2)n1 [compound 84] | + (“+” stands for 50-80% inhibition) |
| O=C(c1csc(C2CCN(c3ccccn3)CC2)n1)N1CCN(c2cccc(C(F)(F)F)c2)CC1 [compound 123] | ++ (“++” means 80-90%) |

| Compound | Biological activity (inhibition in the NF-κB inflammation assay) |
| --- | --- |
| O=C(c1csc(N2CCN(c3cccc(C(F)(F)F)c3)CC2)n1)N1CCN(c2cccc(C(F)(F)F)c2)CC1 [compound 67] | + (“+” stands for 50-80% inhibition) |
| O=C(c1csc(N2CCN(Cc3ccccc3)CC2)n1)N1CCN(c2cccc(C(F)(F)F)c2)CC1 [compound 72] | +++ (“+++” stands for 90-100% inhibition) |
| COc1nc(OC)nc(N2CCN(C(=O)c3csc(C4CCN(Cc5ccccc5)CC4)n3)CC2)n1 [compound 120] | + (“+” stands for 50-80% inhibition) |
| CN1CCOc2cc(C(=O)N3CCC(c4nc(C(=O)N5CCN(c6cccc(C(F)(F)F)c6)CC5)cs4)CC3)ccc21 [compound 210] | ++ (“++” means 80-90%) |
| O=C(c1csc(C2CCN(S(=O)(=O)c3ccc(F)cc3Cl)CC2)n1)N1CCN(c2cccc(C(F)(F)F)c2)CC1 [compound 195] | + (“+” stands for 50-80% inhibition) |
| COc1ccccc1N1CCC(c2nc(C(=O)N3CCN(c4cccc(C(F)(F)F)c4)CC3)cs2)CC1 [compound 158] | + (“+” stands for 50-80% inhibition) |
| O=C(c1csc(C2CCN(C(=O)c3cccs3)CC2)n1)N1CCN(c2cccc(C(F)(F)F)c2)CC1 [compound 212] | + (“+” stands for 50-80% inhibition) |
| O=C(c1cccnc1)N1CCC(c2nc(C(=O)N3CCN(c4cccc(C(F)(F)F)c4)CC3)cs2)CC1 [compound 222] | + (“+” stands for 50-80% inhibition) |
| CC1c2cc(O)c(O)cc2CCN1C(=O)c1csc(C2CCN(C(=O)Cc3ccc(F)cc3)CC2)n1 (stereo not drawn) [compound 233] | + (“+” stands for 50-80% inhibition) |
| O=C(Cc1ccc(F)cc1)N1CCC(c2nc(C(=O)N3CCc4cc(O)c(O)cc4C3)cs2)CC1 [compound 160] | + (“+” stands for 50-80% inhibition) |
| O=C(O)c1cccc(O)c1C(=O)N1CCC(c2nc(C(=O)N3CCN(c4cccc(C(F)(F)F)c4)CC3)cs2)CC1 [compound 186] | + (“+” stands for 50-80% inhibition) |
| O=C(c1csc(C2CCN(C(=O)c3ccco3)CC2)n1)N1CCN(c2cccc(C(F)(F)F)c2)CC1 [compound 230] | + (“+” stands for 50-80% inhibition) |
| COC(=O)CC1c2ccccc2CCN1C(=O)c1csc(C2CCN(C(=O)Cc3ccc(F)cc3)CC2)n1 (stereo not drawn) [compound 227] | + (“+” stands for 50-80% inhibition) |
| COc1ccc(N2CCC(c3nc(C(=O)N4CCN(c5cccc(C(F)(F)F)c5)CC4)cs3)CC2)c(OC)c1 [compound 153] | + (“+” stands for 50-80% inhibition) |
| Cc1sc(C2CCN(C(=O)c3ccccc3OC(F)(F)F)CC2)nc1CC(=O)N1CCN(c2cccc(C(F)(F)F)c2)CC1 [compound 103] | ++ (“++” means 80-90%) |
| O=C(c1csc(C2CCN(CCC(c3ccccc3)c3ccccc3)CC2)n1)N1CCN(c2cccc(C(F)(F)F)c2)CC1 [compound 35] | +++ (“+++” stands for 90-100% inhibition) |
| O=C(O)c1ccccc1C(=O)N1CCC(c2nc(C(=O)N3CCN(c4cccc(C(F)(F)F)c4)CC3)cs2)CC1 [compound 185] | + (“+” stands for 50-80% inhibition) |

same assay, conditions: inhibition classes

| Compound | Biological activity (inhibition in the NF-κB inflammation assay) |
| --- | --- |
| COc1ccc(OC)c(N2CCC(c3nc(C(=O)N4CCN(c5cccc(C(F)(F)F)c5)CC4)cs3)CC2)c1 [compound 239] | + (“+” stands for 50-80% inhibition) |
